Test results published in patent US20050107440A1, “Rosiglitazone edisylates and their use as antidiabetics” (priority 2001, published 2005).

Legend:
Format in all cases: physicochemical
[1] = Solubility of the Ethanedisulfonate Form I in water (visual, aliquot addition); conditions: water added in aliquots 0.25 to 1 ml to approx. 30 mg; product of Example 2
[2] = Solubility of the Ethanedisulfonate Form II in water (visual, confirmed by HPLC assay of a saturated solution); conditions: water added in aliquots 1 to 1000 ml to approx. 100 mg, product of Example 7
Text: The visual solubility was confirmed by an HPLC assay of a saturated solution.

[3] = Solid state stability of the drug substance (storage 1 month, HPLC assay); conditions: product of Example 7
Description: The solid state stability of the drug substance was determined by storing approximately 1.0 g of the material in a glass bottle at a) 40° C./75% Relative Humidity (RH), open exposure, for 1 month and b) at 50° C., closed, for 1 month. […] Solubility of the Ethanedisulfonate Form II

Structure (SMILES)	Solubility [1] [µg/mL]	Solubility [2] [µg/mL]	Solid state stability: HPLC assay (final content) ([3]; 40° C./75% RH, open exposure) [% initial]	Solid state stability: degradation ([3]; 40° C./75% RH, open exposure)	Solid state stability: HPLC assay (final content) ([3]; 50° C., closed) [% initial]	Solid state stability: degradation ([3]; 50° C., closed)
CN(CCOc1ccc(CC2SC(=O)NC2=O)cc1)c1ccccn1.O=S(=O)(O)CCS(=O)(=O)O (stereo not drawn) [Ethanedisulfonate Form I, 5-[4-[2-(N-methyl-N-(2-pyridyl)amino)ethoxy]benzyl]thiazolidine-2,4-dione 1,2-ethanedisulfonate Form I]	4700	–	–	–	–	–
CN(CCOc1ccc(CC2SC(=O)NC2=O)cc1)c1ccccn1.O=S(=O)(O)CCS(=O)(=O)O (stereo not drawn) [Ethanedisulfonate Form II, 5-[4-[2-(N-methyl-N-(2-pyridyl)amino)ethoxy]benzyl]thiazolidine-2,4-dione 1,2-ethanedisulfonate Form II]	–	4700	98	No significant degradation observed	99	No significant degradation observed
